Assay results as given in the supplement of paper PMC13380429.

Legend:
Settings in all cases: 72 h
HepG2 [1] = assay: drug sensitivity score (DSS) for viability; higher = more toxic; extreme values may be limits of the assay
Vero E6 [2] = assay: as above
Calu-3 [3] = assay: as above
U2OS [4] = assay: as above
Caco-2 [5] = assay: as above
HepG2 [6] = assay: relative viability EC50 (midpoint between 100% and the lowest measured viability); higher = less toxic
Vero E6 [7] = assay: as above
Calu-3 [8] = assay: as above
U2OS [9] = assay: as above
Caco-2 [10] = assay: as above
HepG2 [11] = assay: cell viability relative to DMSO; higher = less toxic
Vero E6 [12] = assay: as above
Calu-3 [13] = assay: as above
U2OS [14] = assay: as above
Caco-2 [15] = assay: as above

| SMILES | drug sensitivity score (HepG2 [1]) | drug sensitivity score (Vero E6 [2]) | drug sensitivity score (Calu-3 [3]) | drug sensitivity score (U2OS [4]) | drug sensitivity score (Caco-2 [5]) | relative viability EC50 (HepG2 [6]) [µM] | relative viability EC50 (Vero E6 [7]) [µM] | relative viability EC50 (Calu-3 [8]) [µM] | relative viability EC50 (U2OS [9]) [µM] | relative viability EC50 (Caco-2 [10]) [µM] | cell viability (HepG2 [11]; 1 nM) [%] | cell viability (HepG2 [11]; 10 nM) [%] | cell viability (HepG2 [11]; 100 nM) [%] | cell viability (HepG2 [11]; 1000 nM) [%] | cell viability (HepG2 [11]; 10000 nM) [%] | cell viability (Vero E6 [12]; 1 nM) [%] | cell viability (Vero E6 [12]; 10 nM) [%] | cell viability (Vero E6 [12]; 100 nM) [%] | cell viability (Vero E6 [12]; 1000 nM) [%] | cell viability (Vero E6 [12]; 10000 nM) [%] | cell viability (Calu-3 [13]; 1 nM) [%] | cell viability (Calu-3 [13]; 10 nM) [%] | cell viability (Calu-3 [13]; 100 nM) [%] | cell viability (Calu-3 [13]; 1000 nM) [%] | cell viability (Calu-3 [13]; 10000 nM) [%] | cell viability (U2OS [14]; 1 nM) [%] | cell viability (U2OS [14]; 10 nM) [%] | cell viability (U2OS [14]; 100 nM) [%] | cell viability (U2OS [14]; 1000 nM) [%] | cell viability (U2OS [14]; 10000 nM) [%] | cell viability (Caco-2 [15]; 1 nM) [%] | cell viability (Caco-2 [15]; 10 nM) [%] | cell viability (Caco-2 [15]; 100 nM) [%] | cell viability (Caco-2 [15]; 1000 nM) [%] | cell viability (Caco-2 [15]; 10000 nM) [%] |
| --- | --- | --- | --- | --- | --- | --- | --- | --- | --- | --- | --- | --- | --- | --- | --- | --- | --- | --- | --- | --- | --- | --- | --- | --- | --- | --- | --- | --- | --- | --- | --- | --- | --- | --- | --- |
| N=C1NC(=O)/C(=C/c2ccc(O)cc2)S1 [mirin] | 0 | 0 | 0.1 | 0 | 0 | > 10 | > 10 | > 10 | > 10 | > 10 | 98.3 | 91.1 | 95.2 | 98 | 96.8 | 99.2 | 96.2 | 96.5 | 93.3 | 104 | 89.9 | 105 | 94.8 | 93.4 | 87.8 | 95.3 | 101 | 97.5 | 99.6 | 97.9 | 95 | 97.8 | 101 | 97.6 | 96.2 |
| O=C1c2c(O)ccc(O)c2C(=O)c2c(NCCNCCO)ccc(NCCNCCO)c21 [mitoxantrone] | 21.6 | 13.9 | 14.6 | 14.6 | 10.7 | 0.11 | 0.35 | 0.15 | 0.514 | 0.565 | 93.1 | 82.4 | 53.2 | 21.8 | 1.7 | 98.8 | 96 | 66.5 | 51.4 | 13.6 | 104 | 98.4 | 65.1 | 46.7 | 28.9 | 95.8 | 102 | 88.7 | 30.6 | 0.7 | 93.3 | 96.5 | 86.2 | 53 | 22.3 |
| CC1(C)CNc2cc(NC(=O)c3cccnc3NCc3ccncc3)ccc21 [motesanib] | 0.1 | 0 | 0 | 0 | 0 | > 10 | > 10 | > 10 | > 10 | > 10 | 95.9 | 94 | 97.4 | 93.5 | 84.9 | 97.3 | 102 | 94.9 | 94 | 96.9 | 111 | 99.6 | 110 | 110 | 108 | 103 | 96.7 | 97.9 | 98.9 | 96.8 | 94.6 | 95.5 | 96.8 | 92.1 | 93.2 |
| CCCc1c2oc(C(=O)O)cc(=O)c2cc2c(=O)cc(C(=O)O)n(CC)c12 [nedocromil] | 0 | 0 | 0 | 0 | 0 | > 10 | > 10 | > 10 | > 10 | > 10 | 113 | 86.5 | 91.5 | 90.6 | 100 | 121 | 100 | 115 | 95.7 | 109 | 102 | 99.4 | 103 | 107 | 98.4 | 102 | 106 | 99.4 | 104 | 97.1 | 98.3 | 99.8 | 97.9 | 105 | 100 |
| CC(=O)C(=Cc1cc(O)c(O)c([N+](=O)[O-])c1)C(C)=O [nitecapone] | 0 | 0 | 0 | 0 | 0 | > 10 | > 10 | > 10 | > 10 | > 10 | 103 | 94 | 96.5 | 98.4 | 93.7 | 109 | 107 | 105 | 98.7 | 105 | 97.5 | 93.7 | 105 | 109 | 110 | 98.8 | 102 | 96.6 | 103 | 95.6 | 94.7 | 92.1 | 99.9 | 95.7 | 96.4 |
| CC1(C)CC[C@]2(C(=O)O)CC[C@]3(C)C(=CC[C@@H]4[C@@]5(C)CC[C@H](O)C(C)(C)[C@@H]5CC[C@]43C)[C@@H]2C1 [oleanolic-acid] | 0 | 0 | 0 | 0 | 0 | > 10 | > 10 | > 10 | > 10 | > 10 | 106 | 96.2 | 89.9 | 99.9 | 94.7 | 96.3 | 94.7 | 94.9 | 95.3 | 95.3 | 109 | 110 | 98.3 | 109 | 89.8 | 95.2 | 98.1 | 94.4 | 102 | 94.5 | 104 | 97.1 | 93 | 104 | 95.6 |
| Cc1[nH]c(=O)c(C#N)cc1-c1ccc2nccn2c1 [olprinone] | 0 | 0 | 0 | 0 | 0 | > 10 | > 10 | > 10 | > 10 | > 10 | 93.2 | 102 | 103 | 104 | 104 | 98.5 | 106 | 94.2 | 102 | 96.7 | 107 | 112 | 93.2 | 104 | 98.3 | 105 | 102 | 101 | 99.9 | 102 | 98.7 | 99.6 | 91.2 | 92 | 94.8 |
| Cc1ncc([N+](=O)[O-])n1CC(O)CCl (stereo not given) [ornidazole] | 0 | 0 | 0 | 0 | 0 | > 10 | > 10 | > 10 | > 10 | > 10 | 101 | 98 | 91.6 | 107 | 99.7 | 101 | 96.6 | 97.4 | 96 | 104 | 99.9 | 95.1 | 93.8 | 96.1 | 108 | 91.3 | 97.1 | 91.8 | 95.8 | 102 | 103 | 101 | 99.1 | 102 | 98.4 |
| O=C1CCCN1CC#CCN1CCCC1 [oxotremorine-sesquifumarate] | 0.9 | 0 | 0 | 0 | 0 | > 10 | > 10 | > 10 | > 10 | > 10 | 101 | 96 | 104 | 94.9 | 82.6 | 105 | 105 | 104 | 93.8 | 92.8 | 96 | 96 | 91.9 | 105 | 101 | 97 | 94.3 | 95.3 | 100 | 102 | 110 | 99.1 | 94.7 | 103 | 98.3 |
| CCCCOc1cc(C(=O)OCCN(CC)CC)ccc1N [oxybuprocaine] | 0 | 0 | 0 | 0 | 0 | > 10 | > 10 | > 10 | > 10 | > 10 | 105 | 117 | 95.7 | 97.8 | 90 | 103 | 105 | 101 | 102 | 97.9 | 96 | 106 | 110 | 107 | 98.7 | 104 | 96.7 | 105 | 101 | 101 | 106 | 96.9 | 98.7 | 100 | 100 |
| Oc1nc(O)c2cn[nH]c2n1 [oxypurinol] | 0 | 0 | 0 | 0 | 0 | > 10 | > 10 | > 10 | > 10 | > 10 | 108 | 86.2 | 104 | 101 | 96 | 96.1 | 103 | 98.5 | 101 | 100 | 95.6 | 108 | 97.2 | 107 | 94.6 | 101 | 102 | 93.6 | 99.5 | 99.8 | 107 | 100 | 98 | 97.7 | 97.1 |
| COc1ccnc(C[S+]([O-])c2nc3cc(OC(F)F)ccc3[nH]2)c1OC (stereo not given) [pantoprazole] | 0 | 0 | 0 | 0 | 0 | > 10 | > 10 | > 10 | > 10 | > 10 | 106 | 107 | 111 | 99.2 | 117 | 95.4 | 97.1 | 91.7 | 91 | 99.2 | 99 | 99.1 | 98.4 | 95.9 | 94.8 | 109 | 105 | 102 | 101 | 99.3 | 99.5 | 104 | 98.7 | 103 | 89.4 |
| CC(COc1ccccc1)N(CCCl)Cc1ccccc1 (stereo not given) [phenoxybenzamine] | 0.6 | 0 | 0 | 0 | 0.5 | > 10 | > 10 | > 10 | > 10 | > 10 | 101 | 106 | 88.7 | 89.4 | 96.5 | 102 | 98.3 | 101 | 97.9 | 94.3 | 96.5 | 109 | 106 | 101 | 95.8 | 96.3 | 102 | 93.4 | 114 | 93.6 | 86.6 | 92.7 | 102 | 95.9 | 86 |
